Measurements: patent US7932283B2, “Fungicide N-cyclopropyl-sulfonylamide derivatives” (Bayer Cropscience AG, priority 2006, dated 2011)

Assays:
Puccinia recondita = assay: In vivo test on Puccinia recondita f. sp. tritici (wheat brown rust); settings: 240 h, wheat plants (Scipion variety), grading 10 days after contamination, good (at least 70%) or total protection
Protocol: In vivo Test on Puccinia reconditef. Sp. tritici (Wheat Brown Rust)
(§1) The active ingredients tested are prepared by homogenisation in a mixture of acetone/tween/DMSO, then diluted with water to obtain the desired active material concentration. Wheat plants (Scipion variety) in starter cups, sown on 50/50 peat soil-pozzolana substrate and grown at 12° C., are treated at the 1-leaf stage (10 cm tall) by spraying with the active ingredient prepared as described above. Plants, used as controls, are treated with the mixture of acetone/tween/DMSO/water not containing the active material.
After 24 hours, the plants are contaminated by spraying the leaves with an aqueous suspension of Puccinia recondita spores (100,000 spores per ml). The spores are collected from a 10-day-old contaminated wheat and are suspended in water containing 2.5 ml/of tween 80 10%. The contaminated wheat plants are incubated for 24 hours at 20° C. and at 100% relative humidity, and then for 10 days at 20° C. and at 70% relative humidity. Grading is carried out 10 days after the contamination, in comparison with the control plants.

Pyrenophora teres = assay: In vivo test on Pyrenophora teres (barley net blotch); settings: 288 h, barley plants (Express variety), grading 12 days after contamination, good (at least 70%) or total protection
Protocol: In Vivo Test on Pyrenophore teres (Barley Net Blotch)
as §1, with “material concentration. Barley plants (Express” for “material concentration. Wheat plants (Scipion”, “Barley plants (Express variety) in” for “Wheat plants (Scipion variety) in”, “sown on a 50/50 peat” for “sown on 50/50 peat”
After 24 hours, the plants are contaminated by spraying them with an aqueous suspension of Pyrenophora teres spores (12,000 spores per ml). The spores are collected from a 12-day-old culture. The contaminated barley plants are incubated for 24 hours at about 20° C. and at 100% relative humidity, and then for 12 days at 80% relative humidity.

[1] = logP by HPLC on reversed-phase column (C 18), EEC Directive 79/B31 Annex V.A8, methods A and B; assay type: physicochemical; settings: linear gradient 10% to 90% acetonitrile; for chromatographic logP: reversed-phase HPLC column (C 18)
Protocol: Calibration was carried out using unbranched alkan-2-ones (having 3 to 16 carbon atoms) with known logP values (determination of the logP values by the retention times using linear interpolation between two successive alkanones).

Podosphaera leucotricha = assay: In vivo test on Podosphaera leucotricha (apple mildew), preventive spray; settings: 240 h, apple young plants, evaluated 10 days after inoculation, good (at least 70%) to total protection
Protocol: In Vivo Test on Podosphaera leucotncha (Apple Mildew) [table] To produce a suitable preparation of active compound, 1 part by weight of active compound is mixed with the stated amounts of solvent and emulsifier, and the concentrate is diluted with water to the desired concentration. Young plants are sprayed with the preparation of active compound at the stated rate of application. After the spray coating has dried on, the plants are inoculated with an aqueous spore suspension of the causal agent of apple mildew (Podosphaera leucobicha). The plants are then placed in a greenhouse at approximately 23° C. and a relative atmospheric humidity of approximately 70%. The test is evaluated 10 days after the inoculation. Under these conditions, good (at least 70%) to total protection is observed at a dose of 100 ppm with the following compounds: 104, 160, 176, 177, 180, 186, 187, 188, 192, 194, 196, 198, 203, 204, 205, 207, 209, 210, 211, 212, 213, 218 and 446.

[2] = tested on: Erysiphe graminis f.sp. horde; assay: In vivo test on Erysiphe graminis (barley mildew), preventive spray; settings: Blumeria graminis, 168 h, barley young plants, evaluated 7 days after inoculation, good (at least 70%) to total protection
Protocol: In Vivo Test on Erysiphe Graminis (Barley Mildew) [table] To produce a suitable preparation of active compound, 1 part by weight of active compound or active compound combination is mixed with the stated amounts of solvent and emulsifier, and the concentrate is diluted with water to the desired concentration. Young plants are sprayed with the preparation of active compound or active compound combination at the stated rate of application. After the spray coating has dried on, the plants are dusted with spores of Erysiphe graminis f.sp. horde. The plants are placed in a greenhouse at a temperature of approximately 20° C. and a relative atmospheric humidity of approximately 80% to promote the development of mildew pustules. The test is evaluated 7 days after the inoculation. Under these conditions, good (at least 70%) to total protection is observed at a dose of 1000 ppm with the following compounds: 104, 160, 177, 178, 186, 192, 194, 203, 204, 205, 207, 210, 212, 213 and 435.

Alternaria solani = assay: In vivo test on Alternaria solani (tomato leaf spot), preventive spray; settings: 168 h, tomato young plants, evaluated 7 days after inoculation, good (at least 70%) to total protection
Protocol: In Vivo Test on Alternaria Solani (Tomato Leaf Spot) [table] To produce a suitable preparation of active compound, 1 part by weight of active compound is mixed with the stated amounts of solvent and emulsifier, and the concentrate is diluted with water to the desired concentration. Young plants are sprayed with the preparation of active compound at the stated rate of application. After the spray coating has dried on, the plants are inoculated with an aqueous spore suspension of Alternaria solani. The plants remain for one day in an incubation cabinet at approximately 20° C. and a relative atmospheric humidity of 100%. Then the plants are placed in an incubation cabinet at approximately 20° C. and a relative atmospheric humidity of 96%. The test is evaluated 7 days after the inoculation. Under these conditions, good (at least 70%) to total protection is observed at a dose of 500 ppm with the following compounds 110, 143, 160, 175, 176, 178, 179, 180, 186, 187, 189, 192, 196, 198, 203, 204, 205, 209, 210, 212, 214, 215 and 652.

[3] = tested on: Mycosphaerella graminicola; assay: In vivo test on Mycosphaerella graminicola (wheat leaf spot); settings: Zymoseptoria tritici, wheat plants (Scipion variety), grading 21 to 28 days after contamination, good (at least 70%) or total protection, read-out: protection (% of efficacy)
Protocol: In vivo Test on Mycosphaerella graminicola (Wheat Leaf Spot)
The active ingredients tested are prepared by homogenisation in a mixture of acetone/tween/DMSO, and then diluted with water to obtain the desired active material concentration.
Wheat plants (Scipion variety), sown on a 50/50 peat soil-pozzolana substrate in starter cups and grown at 12° C., are treated at the 1-leaf stage (10 cm tall) by spraying with the active ingredient prepared as described above.
Plants, used as controls, are treated with the mixture of acetone/tween/DMSO/water not containing the active material.
After 24 hours, the plants are contaminated by spraying them with an aqueous suspension of Mycosphaerella graminicola spores (500 000 spores per ml). The spores are collected from a 7-day-old culture. The contaminated wheat plants are incubated for 72 hours at 18° C. and at 100% relative humidity, and then for 21 to 28 days at 90% relative humidity.
Grading (% of efficacy) is carried out 21 to 28 days after the contamination, in comparison with the control plants.

[4] = HPLC reversed-phase C 18, method A: 43° C., 0.1% aqueous phosphoric acid, acetonitrile
[5] = LogP method A: HPLC reversed-phase C 18, 43° C., 0.1% aqueous phosphoric acid / acetonitrile
[6] = LogP method B: HPLC reversed-phase C 18, 40° C., 0.1% aqueous formic acid / acetonitrile

| Structure (SMILES) | chromatographic logP [1, 4] | pest or weed control at 100 ppm (Podosphaera leucotricha) [%] | pest or weed control at 1000 ppm [2] [%] | pest or weed control at 500 ppm (Alternaria solani) [%] | further results |
| --- | --- | --- | --- | --- | --- |
| Cn1nc(C(F)F)c(C(=O)N(C2CC2)S(=O)(=O)c2cccc(O)c2O)c1F [Compound 104] |  | ≥ 70 | ≥ 70 |  | pest or weed control at 500 ppm (Puccinia recondita): ≥ 70%; pest or weed control at 500 ppm (Pyrenophora teres): ≥ 70%; chromatographic logP ([1]; HPLC reversed-phase C 18, method B: 40° C., 0.1% aqueous formic acid and acetonitrile): 3.2 |
| COc1nn(C)cc1C(=O)N(C1CC1)S(=O)(=O)c1ccc(Oc2ccccc2)cc1 [Compound 143] |  |  |  | ≥ 70 |  |
| Cc1nn(C)c(F)c1C(=O)N(C1CC1)S(=O)(=O)c1cccc(C(F)(F)F)c1 [Compound 177] | 3.03 | ≥ 70 | ≥ 70 |  |  |
| Cc1nn(C)c(F)c1C(=O)N(C1CC1)S(=O)(=O)c1ccc(Oc2ccccc2)cc1 [Compound 187] | 3.42 | ≥ 70 |  | ≥ 70 |  |
| Cc1cc(C)c(S(=O)(=O)N(C(=O)c2c(C)nn(C)c2F)C2CC2)c(C)c1 [Compound 189] | 3.05 |  |  | ≥ 70 |  |
| Cc1nn(C)c(F)c1C(=O)N(C1CC1)S(=O)(=O)c1ccc(C(C)(C)C)cc1 [Compound 192] | 3.55 | ≥ 70 | ≥ 70 | ≥ 70 |  |
| Cc1nn(C)c(F)c1C(=O)N(C1CC1)S(=O)(=O)c1ccc(O)c(C(F)(F)F)c1 [Compound 194] | 3.5 | ≥ 70 | ≥ 70 |  |  |
| Cc1nn(C)c(F)c1C(=O)N(C1CC1)S(=O)(=O)c1ccc(-c2ccccc2)cc1 [Compound 209] | 3.39 | ≥ 70 |  | ≥ 70 |  |
| Cc1nn(C)cc1C(=O)N(C1CC1)S(=O)(=O)c1ccccc1O [Compound 214] |  |  |  | ≥ 70 | LogP [1, 4]: 2.31 |
| Cc1nn(C)c(F)c1C(=O)N(C1CC1)S(=O)(=O)c1cc(O)sc1O [Compound 435] |  |  | ≥ 70 |  | chromatographic logP [1, 5]: 3.16 |
| CCOc1nn(C)cc1C(=O)N(C1CC1)S(=O)(=O)c1ccc(Oc2ccc(OC)cc2)c(O)c1 [Compound 531] |  |  |  |  | pest or weed control at 500 ppm (Puccinia recondita): ≥ 70%; pest or weed control at 500 ppm (Pyrenophora teres): ≥ 70%; chromatographic logP [1, 6]: 3.8; pest or weed control at 500 ppm [3]: ≥ 70% |
| CCOc1nn(C)cc1C(=O)N(C1CC1)S(=O)(=O)c1ccc(Oc2ccc(C)cc2)c(O)c1 [Compound 542] |  |  |  |  | pest or weed control at 500 ppm (Puccinia recondita): ≥ 70%; pest or weed control at 500 ppm (Pyrenophora teres): ≥ 70%; chromatographic logP [1, 6]: 4.3; pest or weed control at 500 ppm [3]: ≥ 70% |
| CC1=C(C(=O)N(C2CC2)S(=O)(=O)c2ccccc2O)OCCS1 [Compound 652] |  |  |  | ≥ 70 | chromatographic logP [1, 5]: 2.78 |

More lines, main results first:

| chromatographic logP [1, 4] | Structure (SMILES) | pest or weed control at 100 ppm (Podosphaera leucotricha) [%] | pest or weed control at 1000 ppm [2] [%] | pest or weed control at 500 ppm (Alternaria solani) [%] | further results |
| --- | --- | --- | --- | --- | --- |
| 2.61 | Cc1cccc(S(=O)(=O)N(C(=O)c2c(C)nn(C)c2F)C2CC2)c1 [Compound 175] |  |  | ≥ 70 |  |
| 2.82 | Cc1nn(C)c(F)c1C(=O)N(C1CC1)S(=O)(=O)c1cccc(O)c1 [Compound 176] | ≥ 70 |  | ≥ 70 |  |
| 3.35 | Cc1nn(C)c(F)c1C(=O)N(C1CC1)S(=O)(=O)c1ccc(O)c(O)c1 [Compound 178] |  | ≥ 70 | ≥ 70 |  |
| 2.46 | Cc1nn(C)c(F)c1C(=O)N(C1CC1)S(=O)(=O)c1ccc(F)cc1 [Compound 179] |  |  | ≥ 70 |  |
| 2.34 | Cc1nn(C)c(F)c1C(=O)N(C1CC1)S(=O)(=O)c1ccccc1O [Compound 180] | ≥ 70 |  | ≥ 70 | pest or weed control at 500 ppm (Pyrenophora teres): ≥ 70% |
| 2.94 | Cc1nn(C)c(F)c1C(=O)N(C1CC1)S(=O)(=O)c1ccc(O)cc1O [Compound 186] | ≥ 70 | ≥ 70 | ≥ 70 |  |
| 2.43 | Cc1ccccc1S(=O)(=O)N(C(=O)c1c(C)nn(C)c1F)C1CC1 [Compound 196] | ≥ 70 |  | ≥ 70 |  |
| 2.78 | Cc1ccc(C)c(S(=O)(=O)N(C(=O)c2c(C)nn(C)c2F)C2CC2)c1 [Compound 198] | ≥ 70 |  | ≥ 70 |  |
| 2.6 | Cc1nn(C)c(F)c1C(=O)N(C1CC1)S(=O)(=O)c1ccccc1C(F)(F)F [Compound 207] | ≥ 70 | ≥ 70 |  |  |
| 3.19 | Cc1nn(C)c(F)c1C(=O)N(C1CC1)S(=O)(=O)c1ccc(C(F)(F)F)cc1O [Compound 213] | ≥ 70 | ≥ 70 |  |  |
| 2.17 | Cc1nn(C)c(C)c1C(=O)N(C1CC1)S(=O)(=O)c1ccccc1O [Compound 215] |  |  | ≥ 70 |  |
